# Measurements reported in ChEMBL document CHEMBL5537167, “Rising Star in Immunotherapy: Development and Therapeutic Potential of Small-Molecule Inhibitors Targeting Casitas B Cell Lymphoma-b (Cbl-b)” (J Med Chem, 2024).
# Tests used:
# [1] = Metabolic stability in mouse liver microsomes assessed as intrinsic clearance
# [2] = Metabolic stability in human liver microsomes assessed as intrinsic clearance
# [3] = biological target: T1, E3 ubiquitin-protein ligase CBL-B (Homo sapiens, UniProt Q13191); assay: Inhibition of Cbl-b (unknown origin) by Cellular substrate assay
# T1 sequence (Q13191 whole entry): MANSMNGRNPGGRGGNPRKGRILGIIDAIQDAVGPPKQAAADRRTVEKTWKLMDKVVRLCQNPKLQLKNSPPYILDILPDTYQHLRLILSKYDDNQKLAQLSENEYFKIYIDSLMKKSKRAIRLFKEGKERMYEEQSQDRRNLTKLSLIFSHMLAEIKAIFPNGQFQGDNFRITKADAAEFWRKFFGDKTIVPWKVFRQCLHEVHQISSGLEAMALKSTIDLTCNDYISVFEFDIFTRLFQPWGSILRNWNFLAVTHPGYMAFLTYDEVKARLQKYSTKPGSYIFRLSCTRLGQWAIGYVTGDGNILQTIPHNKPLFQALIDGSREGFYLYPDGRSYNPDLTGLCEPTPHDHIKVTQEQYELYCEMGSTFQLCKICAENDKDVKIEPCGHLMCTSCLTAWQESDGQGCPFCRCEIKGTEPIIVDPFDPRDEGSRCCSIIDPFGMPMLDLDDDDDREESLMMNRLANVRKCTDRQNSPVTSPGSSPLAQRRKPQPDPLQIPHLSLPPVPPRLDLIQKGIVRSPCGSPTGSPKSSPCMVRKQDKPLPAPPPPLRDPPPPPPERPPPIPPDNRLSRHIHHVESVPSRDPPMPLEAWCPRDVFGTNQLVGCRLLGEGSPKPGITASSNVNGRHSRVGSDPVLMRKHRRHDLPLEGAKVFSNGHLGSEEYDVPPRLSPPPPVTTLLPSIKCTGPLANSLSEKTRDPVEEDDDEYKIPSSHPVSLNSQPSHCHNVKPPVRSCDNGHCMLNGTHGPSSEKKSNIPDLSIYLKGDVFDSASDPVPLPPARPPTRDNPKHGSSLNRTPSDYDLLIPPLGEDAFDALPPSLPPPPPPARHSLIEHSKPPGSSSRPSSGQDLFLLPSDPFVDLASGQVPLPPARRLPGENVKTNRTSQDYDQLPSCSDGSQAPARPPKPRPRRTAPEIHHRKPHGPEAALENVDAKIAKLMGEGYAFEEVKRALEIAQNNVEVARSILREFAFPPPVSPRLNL
# [4] = in vitro; conditions: rat, plasma
# [5] = biological target: T1, E3 ubiquitin-protein ligase CBL-B; assay: Inhibition of CBL-B (unknown origin) by FRET assay
# [6] = biological target: T1, E3 ubiquitin-protein ligase CBL-B
# Description: Inhibition of N-terminal biotinylated Avi-tagged Cbl-b (36 to 427 residues) (unknown origin) by SPR assay
# [7] = biological target: T1, E3 ubiquitin-protein ligase CBL-B; assay: Inhibition of CBL-B (unknown origin) by biochemical assay
# [8] = tested on: Panel NCI-60 (60 carcinoma cell lines); assay: Anti-proliferative activity against human Panel NCI-60 (60 carcinoma cell lines)
# [9] = biological target: T1, E3 ubiquitin-protein ligase CBL-B; assay: Inhibition of Cbl-b (unknown origin) using fluorophore-labeled probe by TR-FRET based Cb1-b displacement assay
# [10] = biological target: T1, E3 ubiquitin-protein ligase CBL-B; assay: Inhibition of Cbl-b (unknown origin) by TR-FRET assay
structure (smiles),measurement,setting,value
Cc1cc(C(=O)Nc2cccc(C3(Cc4nncn4C)COC3)c2)nc(C2CC2)n1,CLint scaled,[1],26 mL/min/kg
same,CLint scaled,[2],7 mL/min/kg
same,IC50,[3],790 nM
same,half-life,[4],> 16.7 h
Cc1cc(C(=O)Nc2cccc([C@H](C)Cc3nncn3C)c2)nc(C2CC2)n1,IC50,[5],38 nM
same,CLint scaled,[1],67 mL/min/kg
same,IC50,[3],780 nM
same,half-life,[4],2.72 h
C[C@H](Cc1nncn1C)c1cccc(NC(=O)c2ccnc(C3CC3)n2)c1,IC50,[5],88 nM
same,CLint scaled,[1],73 mL/min/kg
same,CLint scaled,[2],30 mL/min/kg
same,IC50,[3],1700 nM
Cc1cc(C(=O)Nc2cccc(C3(Cc4nocc4C)COC3)c2)nc(C2CC2)n1,IC50,[6],< 100 nM
C[C@H](Sc1nncn1C)c1cccc(NC(=O)c2ccnc(C3CC3)n2)c1,IC50,[5],92 nM
C[C@H]1CCCN(Cc2cc3c(c(C(F)(F)F)c2)CN(c2cccc([C@]4(c5nncn5C)C[C@@H](C)C4)c2)C3=O)C1,IC50,[5],≤ 5 nM
CN(C)c1c2c(c3nc4ccccc4c4c3c1N=C4)NCCC2=O,IC50,[7],167000 nM
same,GI50,[8],180 nM
C[C@H]1CCCN(Cc2cc3c(c(C(F)(F)F)c2)CN(c2cccc([C@]4(Cc5nncn5C)C[C@@H](C#N)C4)c2)C3=O)C1,IC50,[6],< 1 nM
Cn1cnnc1CC1(c2cccc(N3Cc4c(cc(CN5CCCC(CC#N)C5)cc4C(F)(F)F)C3=O)c2)COC1 (stereo unspecified),IC50,[6],1 nM
C[C@H](Cc1nncn1C)c1cccc(NC(=O)N2CCOc3cccnc32)c1,IC50,[9],< 100 nM
Cn1cnnc1CC1(c2cccc(-n3cc4c(C(F)(F)F)cc(CN5CCC6(CC6)C5)cn4c3=O)c2)COC1,IC50,[10],< 100000 nM
Cn1cnnc1[C@H](c1cccc(-n2cc3c(C(F)(F)F)cc(CN4CCC[C@@](C)(O)C4)cn3c2=O)c1)C1CCC1,IC50,[10],< 100000 nM
C[C@@H]1CN(Cc2cc3c(c(C(F)(F)F)c2)CN(c2cccc(C4(c5nncn5C)CC(F)(F)C4)c2)C3=O)CCO1,IC50,[6],≤ 5 nM
CN(C)c1c2c(c3nc4ccccc4c4c3c1N=C4N1C(=O)c3c4c(nc5ccccc35)C3=C(C(=O)CCN3)C(=[N+](C)C)C41)NCCC2=O (stereo in doubt; (+)-8),IC50,[7],9700 nM
same,GI50,[8],> 30000 nM
CN(C)c1c2c(c3nc4ccccc4c4c3c1N=C4N1C(=O)c3c4c(nc5ccccc35)C3=C(C(=O)CCN3)C(=[N+](C)C)C41)NCCC2=O (stereo in doubt; (-)-8),IC50,[7],7500 nM
